According to US8524949B2, “Agomelatine hydrohalide complex and preparation method thereof” (Les Laboratories Servier, priority 2009, dated 2013):
Converted amounts (≈) assume the structure as drawn.

Experiment: Water solubility, HPLC with external standard
Format: physicochemical

- solubility: 1110 µg/mL (≈ 4.56 mM)
SMILES: COc1ccc2cccc(CCNC(C)=O)c2c1 [Agomelatine, N-[2-(7-methoxy-1-naphthyl)ethyl]-acetamide]
